Test results reported in US5372813A (priority 1992, dated 1994).
Like-named read-outs stand apart in the source and are kept apart here.

Assays:
depression = conditions: patients, in words; cited from earlier work
[1] = molecular target: T1, 5-HT (serotonin) reuptake complex (Rattus norvegicus, UniProt P31652); assay: competition with 3H-paroxetine for the 5-HT reuptake complex in rat cortical brain homogenates (Ki); type: binding; conditions: Ki of analogue relative to Ki of 6-NQP
T1 construct: from tissue; host or cells: rat cortical brain homogenates
T1 sequence (P31652 whole entry, one chain of several): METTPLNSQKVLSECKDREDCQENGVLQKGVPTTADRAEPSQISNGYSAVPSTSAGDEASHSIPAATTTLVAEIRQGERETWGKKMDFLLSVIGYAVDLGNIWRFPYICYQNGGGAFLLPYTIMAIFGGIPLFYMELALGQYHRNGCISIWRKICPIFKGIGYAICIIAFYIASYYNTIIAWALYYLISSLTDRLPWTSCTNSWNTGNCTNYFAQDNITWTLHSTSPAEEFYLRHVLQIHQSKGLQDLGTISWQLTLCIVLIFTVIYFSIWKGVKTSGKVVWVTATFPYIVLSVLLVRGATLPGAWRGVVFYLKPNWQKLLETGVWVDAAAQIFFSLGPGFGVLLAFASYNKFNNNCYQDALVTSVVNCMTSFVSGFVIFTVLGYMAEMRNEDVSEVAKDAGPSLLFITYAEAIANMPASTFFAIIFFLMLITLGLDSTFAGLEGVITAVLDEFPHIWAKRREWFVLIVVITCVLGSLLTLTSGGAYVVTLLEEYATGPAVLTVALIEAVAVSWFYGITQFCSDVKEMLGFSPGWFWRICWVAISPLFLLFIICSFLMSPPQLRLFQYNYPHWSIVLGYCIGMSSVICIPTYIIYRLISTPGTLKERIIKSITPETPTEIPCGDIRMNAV
Method: A potency ratio was also determined by comparing the Ki of the analogue to the Ki experimentally determined for the unsubstituted 6-Nitroquipazine.

[2] = molecular target: T1, 5-HT (serotonin) reuptake complex; assay: as above; type: binding
serotonin uptake system = assay: competition of known ligands against 5-125I-6-NQP in membrane preparation; type: binding, rat; conditions: versus e.g. sertraline and fluoxetine, in words
Method: In the second set of experiments, competition experiments were performed with known agonist and antagonists to the serotonin uptake system, post synaptic serotonin receptors, and a receptors of other brain receptor systems. These compounds were incubated against 5-^125 I-6-NQP to determine the concentration needed to displace 5-^125 I-6-NQP from the membrane preparations. The strongest competitors were those specific for the serotonin uptake system, (FIG. 2).

[3] = in vivo brain uptake, clearance and regional distribution of 5-125I-6-NQP after i.v. injection; conditions: rat
Method: Whole body distribution studies were performed in rats in accordance with the method of Carl Mathis, et al described in Nuclear Medicine and Biology 19: 571-588 (1992).
The ratios of regional activity concentrations to cerebellar concentrations are plotted in the left panel of FIG. 4. […] Also plotted in the right panel of FIG. 4 is the time course of specific binding (total regional radioactivity cerebellar radioactivity) in a representative tissue.

[4] = metabolite determination in brain and thyroid radioactivity after injection of 5-125I-6-NQP; type: in vivo, rat
Method: The brains of rats which had been injected with 25 μCi of 5-^125 I-6-NQP 6 h earlier were removed, homogenized, and repeatedly extracted with ethyl acetate and added cold 5-I-6-NQP carrier. The ethyl acetate fractions were pooled and evaporated, and the concentrate subject to TLC and HPLC (with fraction collection) analyses to determine metabolites in the brain.

5-HT reuptake complex [5] = assay: ex vivo autoradiography of rat brain; conditions: 25 μCi, 2, 6 and 12 h post injection, in words
Method: Ex vivo autoradiography was performed on rats injected with 25 μCi 5-^125 I-6-NQP and killed at 2, 6 and 12 h post injection.

serotonin uptake sites = serotonin uptake sites (Rattus norvegicus, UniProt P31652); assay: Scatchard saturation binding of 5-125I-6-NQP to isolated rat brain membranes, control and PCA-treated; conditions: PCA-treated versus control rats, in vitro, in words
serotonin uptake sites, sequence (P31652 whole entry): as the sequence (P31652 whole entry, one chain of several) above

5-HT reuptake complex [6] = assay: in vivo blocking of 5-125I-6-NQP brain binding by co-injected drugs; design: species or system rat; conditions: co-injection, LSD 0.5 mg/kg; GBR-12909 and DMI 2 mg/kg, in words
Text: A critical test of the in vivo behavior of the radioligand is the ability to block its specific binding.

5-HT reuptake site = assay: neurotoxin (PCA) pretreatment study, 5-125I-6-NQP binding; type: in vivo, rat; conditions: PCA 10 mg/kg for 2 days
Text: The in vivo results were consistent with the reduction in Bmax measured by in vitro binding methods and indicated up to a 90% reduction in 5-HT reuptake site densities in lesioned rats.

[7] = rat cortical brain homogenates, 3H-paroxetine displacement, read-out: In vitro Inhibition Constants (Ki) for the 5-HT Reuptake Site

For `CNCCC(Oc1ccc(C(F)(F)F)cc1)c1ccccc1` (racemic) [fluoxetine, (±)-N--Methyl-3-Phenyl-3-[(ααα-trifluoro-p-tolyl)oxy]propylamine], the “anti-depressant efficacy compared with certain tricyclic amine drugs” value (depression) is given as “equal anti-depressant efficacy” and the “total side effects and dropouts compared with certain tricyclic amine drugs” value (depression) is given as “fewer total side effects and dropouts”.

With `O=[N+]([O-])c1ccc2nc(N3CCNCC3)c(Br)cc2c1` [3-Br-6-NQP, 3-Bromo-6-nitro-2-piperazinylquinoline] the “Potency Ratio” value [1] was 42 and the Ki [2] was 9.6 ± 2.6 nM.

In the case of `O=[N+]([O-])c1ccc2nc(N3CCNCC3)cc(Br)c2c1` [4-Br-6-NQP], the “Potency Ratio” value [1] is reported as 870 and the Ki [2, 7] is reported as 200 ± 80 nM.

For `O=[N+]([O-])c1ccc2nc(N3CCNCC3)ccc2c1Br` [5-Br-6-NQP, 5-Bromo-6-nitro-2-piperazinylquinoline], the “Potency Ratio” value [1] was 0.57 and the Ki [2] was 0.13 ± 0.02 nM.

For `O=[N+]([O-])c1ccc2nc(N3CCNCC3)ccc2c1[125I]` [5-^125 I-6-NQP, [^125 I]5-Iodo-6-nitro-2-piperazinylquinoline], the “relative potency for the uptake site versus other serotonin uptake ligands” value (serotonin uptake system) was “greater than that observed for other serotonin uptake ligands”, the whole brain accumulation ([3]; 25 μCi (11 pmoles) i.v., 5 min post injection) was 1.9 % of the injected dose and the “ratios of regional to cerebellar activity concentrations” value ([3]; i.v., 12 h period post injection, in words) was “increase in a nearly linear manner over the 12 h period post injection”. The brain penetration ([3]; i.v., in words) was “good brain penetration”, the “clearance of nonspecific binding (cerebellum) versus regions of high 5-HT innervation” value ([3]; i.v., in words) was “more rapid than that of radioactivity clearance from brain regions containing high concentrations of 5-HT innervation” and the “loss of activity from the brain” value ([3]; i.v., over 12 h, in words) was “slow steady loss of activity from the brain over 12 h”. The remaining at 6 h ([4]; 25 uCi, rat brain, 25 μCi, 6 h, read-out: unmetabolized radioligand in brain (organic phase radioactivity)) was greater than 98%, the “metabolic deiodination in vivo” value ([4]; rat, 6 h, in words) was “metabolic deiodination of 5-^125 I-6-NQP occurs in vivo in rats” and the “radioactivity in the thyroid gland” value ([4]; rat, 6 h post injection) was 11 % of the injected dose. For the same molecule, the “binding distribution in rat brain by ex vivo autoradiography” value (5-HT reuptake complex [5]) was “consistent with the known neuroanatomical distribution of the 5-HT reuptake complex”, the “affinity (Kd) after PCA treatment” value (serotonin uptake sites) was “little change in the affinity (Kd)” and the “affinity (Kd) after PCA treatment” value (serotonin uptake sites; listed as INQUIP) was “without change in affinity”. The “total binding (Bmax) after PCA treatment” value (serotonin uptake sites; listed as INQUIP) was “enormous reduction in binding after PCA treatment”.

In the case of `O=[N+]([O-])c1ccc2nc(N3CCNCC3)ccc2c1` [6-NQP, 6-nitro-2-N-piperazinylquinoline, reference compound], the “Potency Ratio” value [1] is reported as 1 and the Ki [2, 7] is reported as 0.23 ± 0.06 nM.

In the case of `O=[N+]([O-])c1cc2ccc(N3CCNCC3)nc2cc1Br` [7-Br-6-NQP, 7-Bromo-6-nitro-2-piperazinylquinoline], the “Potency Ratio” value [1] is reported as 18 and the Ki [2] is reported as 4.1 ± 1.5 nM.

In the case of `O=[N+]([O-])c1cc(Br)c2nc(N3CCNCC3)ccc2c1` [8-Br-6-NQP, 8-Bromo-6-nitro-2-piperazinylquinoline], the “Potency Ratio” value [1] is reported as 78 and the Ki [2] is reported as 18 ± 3 nM.

In the case of `Fc1ccc(C(OCCN2CCN(CCCc3ccccc3)CC2)c2ccc(F)cc2)cc1` [GBR-12909], the “radioactivity concentrations in brain regions” value (5-HT reuptake complex [6]) is reported as “little effect on radioactivity concentrations in these regions”.

With `CCN(CC)C(=O)[C@@H]1C=C2c3cccc4[nH]cc(c34)C[C@H]2N(C)C1` [LSD] the “radioactivity concentrations in brain regions” value (5-HT reuptake complex [6]) was “little effect on radioactivity concentrations in these regions”.

For `CC(N)Cc1ccc(Cl)cc1` (stereo not shown) [PCA, p-chloroamphetamine], the “specifically bound radioactivity after PCA pretreatment” value (5-HT reuptake site; i.v. 5-125I-6-NQP two weeks later, in words) was “regionally selective reduction of specifically bound radioactivity” and the “reduction in 5-HT reuptake site densities in lesioned rats” value (5-HT reuptake site; two weeks before) was no more than 90%.
